Laboratory results taken from patent publication US11559504B2, “Ceramide nanoliposomes, compositions and methods of using for immunotherapy” (THE PENN STATE RESEARCH FOUNDATION, priority 2017, dated 2023).

Key:
G-BMMs and M-BMMs = assay: ROS in bone marrow-derived macrophages in vitro, ROS-Glo H2O2 luminescent assay; assay type: cell-based, C57BL/6 mice; conditions: ceramides of carbon-chain lengths 6 to 22, overnight incubation
Method: Size-matched TBMs were randomly assigned to one of three groups: vehicle, LipC6, or no injection. Two weeks after injection, splenic leukocytes and TILs were prepared from the spleen and the perfused tumors. The cells were incubated for 45 mins at 37° C., then washed three times with media, with the remaining adherent cells being >90% CD11b positive (macrophages). Intracellular ROS were measured with Glo™ H2O2 assay. Briefly, H2O2 substrate was added to each well followed by addition of ROS-Glo™ detection solution. After incubation for 20 minutes at RT, relative luminescence was measured to assess ROS level in TAMs (A) and splenic macrophages (B). Similarly, bone marrow-derived macrophages (BMMs) were prepared in vitro by stimulating bone marrow cells from wild type C57BL/6 mice with GMCSF (G-BMMs) and MCSF (M-BMMs) for 6 days.
G-BMMs (A) and M-BMMs (B) were prepared in vitro by stimulating bone marrow cells from wild type C57BL/6 mice with GMCSF and MCSF for 6 days. After incubation with the ceramides of different carbon-chain lengths varying from 6 to 22 overnight, the relative ROS level in G-BMMs (C) and M-BMMs (D) was measured with a luminescence assay in accordance with the manufacturer's instruction. n=3; error bars represent±SD. * p<0.05.
Mice. […] Small tumors can be detected by MRI two months after hepatocyte inoculation. […]

GM-BMMs = assay: M1 cytokine mRNA in GM-BMMs with LipC6, NAC or both, RT-PCR; assay type: cell-based, C57BL/6 mice; conditions: 50 μM NAC, 24 hours
Method: GM-BMMs were prepared in vitro by stimulating bone marrow derived monocytes from wild type C57BL/6 mice with 50 ng/mL GMCSF for 6 days. GM-BMMs were incubated for 24 hours with 25 μM vehicle, 25 μM LipC6, 50 μM NAC or LipC6 plus NAC. Total RNA was extracted and subjected to RT-PCR to quantitate M1 cytokines including iNOS (B), IL-12 (C), IFN-γ (D) and TNF-α (E). n=3, *=p<0.05 and **=p<0.001 using Student's t-test.
Total RNA extraction and real-time PCR. Total RNAs were extracted using Trizol reagent (Invitrogen, Carlsbad, Calif.) according to the manufacturer's instructions. 2 μg of total RNAs were used for cDNA synthesis with High Capacity cDNA Reverse Transcription Kits (Applied Biosystems, CA). Each PCR was performed in a 20 μl reaction mixture containing SYBR Green I (Roche, Basel, Switzerland). Real-time PCR was performed with CFX96 Real-Time PCR Detection System (Bio-Rad, CA). Reactions were run in triplicate in three independent experiments. Expression data were normalized to the geometric mean of housekeeping gene 18S rRNA to control the variability in expression levels and were analyzed using the 2^ΔΔCT method.
To further study if ROS signaling is required for LipC6-mediated modulation of macrophages, we compared the function of LipC6 and the ROS specific inhibitor N-acetyl-L-cysteine (NAC) in modulating M1 cytokine production in GMCSF-induced macrophages.

SMILES | suppressive effect on ROS production in BMMs (G-BMMs and M-BMMs) | M1 cytokine production profile compared with LipC6 (GM-BMMs)
CCCCCCCCCCCCC/C=C/[C@@H](O)[C@H](CO)NC(=O)CCCCC [C6-ceramide, N-hexanoyl-D-erythro-sphinogosine] | suppressive effect | 
CCCCCCCCCCCCC/C=C/[C@@H](O)[C@H](CO)NC(=O)CCCCCCC [C8-ceramide] | suppressive effect | 
CC(=O)N[C@@H](CS)C(=O)O [NAC, N-acetyl-L-cysteine] |  | similar
